Measurements as given in patent US8822503B2, “2-pyridone compounds” (Taisho Pharmaceutical Co., Ltd, priority 2009, dated 2014).

biological target: T1, human liver GK (Homo sapiens, UniProt P35557); assay: GK activation test; format: biochemical; conditions: test compound concentration needed to activate 50% of maximum activation ability; 4 mM 14C-labeled glucose, 2 mM ATP, room temperature, 20 minutes
T1 construct: GST (glutathione S-transferase) (N); made in house; host or cells: E. coli
T1 sequence (P35557 1-466 isoform P35557-2): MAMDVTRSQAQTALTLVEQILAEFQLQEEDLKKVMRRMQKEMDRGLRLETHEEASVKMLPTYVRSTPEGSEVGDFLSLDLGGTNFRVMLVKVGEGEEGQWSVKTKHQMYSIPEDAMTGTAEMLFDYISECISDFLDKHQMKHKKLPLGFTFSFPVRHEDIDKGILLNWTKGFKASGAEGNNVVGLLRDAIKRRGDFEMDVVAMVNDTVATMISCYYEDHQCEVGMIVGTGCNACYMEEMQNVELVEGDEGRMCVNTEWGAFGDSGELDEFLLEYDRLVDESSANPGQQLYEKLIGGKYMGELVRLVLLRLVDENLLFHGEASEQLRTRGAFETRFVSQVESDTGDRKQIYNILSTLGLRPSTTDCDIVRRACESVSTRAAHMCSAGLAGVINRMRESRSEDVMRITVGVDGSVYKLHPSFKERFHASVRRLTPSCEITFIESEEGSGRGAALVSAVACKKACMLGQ
Summary of the method: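 GST-tagged human liver GK from E. coli (0.24 μg/well) with 4 mM 14C-glucose, 2 mM ATP in Hepes-KOH pH 7.1, KCl, MgCl2, DTT, 1% DMSO, 20 min room temperature. Labeled glucose 6-phosphate captured on anion resin, eluted and counted. EC50 = concentration giving half of maximal activation.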

| SMILES | EC50 [nM] |
| --- | --- |
| O=C1CC[C@H](/C=C(\c2ccc3c(c2)CCO3)c2ccc(C3CC3)c(=O)[nH]2)N1 [Example 4-123, 3-Cyclopropyl-6-{(E)-1-(2,3-dihydro-1-benzofuran-5-yl)-2-[(2R)-5-oxopyrrolidin-2-yl]ethenyl}pyridin-2(1H)-one] | 10 to 500 |
| COc1cc(/C(=C\[C@H]2CCC(=O)N2)c2ccc(C3CC3)c(=O)[nH]2)ccc1Cl [Example 4-124, 6-{(E)-1-(4-Chloro-3-methoxyphenyl)-2-[(2R)-5-oxopyrrolidin-2-yl]ethenyl}-3-cyclopropylpyridin-2(1H)-one] | 10 to 500 |
| CCc1cc(/C(=C\[C@H]2CCC(=O)N2)c2ccc(C3CC3)c(=O)[nH]2)ccc1Cl [Example 4-125, 6-{(E)-1-(4-Chloro-3-ethylphenyl)-2-[(2R)-5-oxopyrrolidin-2-yl]ethenyl}-3-cyclopropylpyridin-2(1H)-one] | 10 to 500 |
| O=C1CC[C@H](/C=C(\c2ccc(OC(F)(F)F)cc2)c2ccc(C3CC3)c(=O)[nH]2)N1 [Example 4-126, 3-Cyclopropyl-6-{(E)-2-[(2R)-5-oxopyrrolidin-2-yl]-1-[4-(trifluoromethoxy)phenyl]ethenyl}pyridin-2(1H)-one] | 10 to 500 |
| O=C1CC[C@H](/C=C(\c2ccc(OC(F)F)cc2)c2ccc(C3CC3)c(=O)[nH]2)N1 [Example 4-127, 3-Cyclopropyl-6-{(E)-1-[4-(difluoromethoxy)phenyl]-2-[(2R)-5-oxopyrrolidin-2-yl]ethenyl}pyridin-2(1H)-one] | 10 to 500 |
| O=C1CC[C@H](/C=C(\c2ccc(OC(F)(F)F)c(Cl)c2)c2ccc(C3CC3)c(=O)[nH]2)N1 [Example 4-128, 6-{(E)-1-[3-Chloro-4-(trifluoromethoxy)phenyl]-2-[(2R)-5-oxopyrrolidin-2-yl]ethenyl}-3-cyclopropylpyridin-2(1H)-one] | 10 to 500 |
| O=C1CC[C@H](/C=C(\c2ccc(Cl)c(OC(F)(F)F)c2)c2ccc(C3CC3)c(=O)[nH]2)N1 [Example 4-129, 6-{(E)-1-[4-Chloro-3-(trifluoromethoxy)phenyl]-2-[(2R)-5-oxopyrrolidin-2-yl]ethenyl}-3-cyclopropylpyridin-2(1H)-one] | 500 to 3000 |
| O=C1CC[C@H](/C=C(\c2ccc(Cl)c(OC(F)F)c2)c2ccc(C3CC3)c(=O)[nH]2)N1 [Example 4-130, 6-{(E)-1-[4-Chloro-3-(difluoromethoxy)phenyl]-2-[(2R)-5-oxopyrrolidin-2-yl]ethenyl}-3-cyclopropylpyridin-2(1H)-one] | 500 to 3000 |
| O=C1CC[C@H](/C=C(\c2ccc(C(F)F)c(F)c2)c2ccc(C3CC3)c(=O)[nH]2)N1 [Example 4-131, 3-Cyclopropyl-6-{(E)-1-[4-(difluoromethyl)-3-fluorophenyl]-2-[(2R)-5-oxopyrrolidin-2-yl]ethenyl}pyridin-2(1H)-one] | 10 to 500 |
| O=C1CC[C@H](/C=C(\c2ccc(C(F)F)c(Cl)c2)c2ccc(C3CC3)c(=O)[nH]2)N1 [Example 4-132, 6-{(E)-1-[3-Chloro-4-(difluoromethyl)phenyl]-2-[(2R)-5-oxopyrrolidin-2-yl]ethenyl}-3-cyclopropylpyridin-2(1H)-one] | 10 to 500 |
| Cc1cc(/C(=C\[C@H]2CCC(=O)N2)c2ccc(C3CC3)c(=O)[nH]2)ccc1C(F)F [Example 4-133, 3-Cyclopropyl-6-{(E)-1-[4-(difluoromethyl)-3-methylphenyl]-2-[(2R)-5-oxopyrrolidin-2-yl]ethenyl}pyridin-2(1H)-one] | 10 to 500 |
| COc1ccc(/C(=C\[C@H]2CCC(=O)N2)c2ccc(C3CC3)c(=O)[nH]2)cc1C(F)(F)F [Example 4-134, 3-Cyclopropyl-6-{(E)-1-[4-methoxy-3-(trifluoromethyl)phenyl]-2-[(2R)-5-oxopyrrolidin-2-yl]ethenyl}pyridin-2(1H)-one] | 10 to 500 |
| COc1cc(/C(=C\[C@H]2CCC(=O)N2)c2ccc(C3CC3)c(=O)[nH]2)ccc1C(F)F [Example 4-135, 3-Cyclopropyl-6-{(E)-1-[4-(difluoromethyl)-3-methoxyphenyl]-2-[(2R)-5-oxopyrrolidin-2-yl]ethenyl}pyridin-2(1H)-one] | 10 to 500 |
